Assay results: the NIST ThermoML archive (doi:10.1007/s10765-013-1491-2)
Where “and” joins values, the source holds several entries; their conditions need not be identical. Equal entries are not always repeated.

Conditions: 101.33 kPa, Liquid, Alternating current cell with electrodes

CCOS(=O)(=O)[O-].CCn1cc[n+](C)c1 [1-ethyl-3-methylimidazolium ethyl sulfate]
Conditions	electrical conductivity [S/m]
288.15 K	0.235
288.16 K	0.235
293.12 K	0.302
298.08 K	0.381
303.15 K	0.473
308.11 K	0.576
313.07 K	0.69
323.08 K	0.961
333.11 K	1.28

CCCCCC[n+]1ccn(C)c1.O=S(=O)([N-]S(=O)(=O)C(F)(F)F)C(F)(F)F
Conditions	electrical conductivity [S/m]
288.27 K	0.136
293.13 K	0.172
298.1 K	0.216
303.18 K	0.268
308.13 K	0.326
313.08 K	0.391
323.11 K	0.544
333.01 K	0.725

CCn1cc[n+](C)c1.O=S(=O)([O-])C(F)(F)F [1-ethyl-3-methylimidazolium trifluoromethanesulfonate]
Conditions	electrical conductivity [S/m]
288.15 K	0.623
288.16 K	0.629
293.11 K	0.747
298.16 K	0.886
303.12 K	1.04
308.08 K	1.2
313.16 K	1.39
323.06 K	1.78
333.1 K	2.24

CCn1cc[n+](C)c1.O=S(=O)([N-]S(=O)(=O)C(F)(F)F)C(F)(F)F
Conditions	electrical conductivity
288.16 K	0.644 S/m and 0.645 S/m
293.12 K	0.768 S/m
298.08 K	0.905 S/m
303.15 K	1.06 S/m
308.11 K	1.22 S/m
313.06 K	1.39 S/m
323.07 K	1.77 S/m
333.11 K	2.2 S/m
